Data reported in the NIST ThermoML archive (doi:10.1016/j.jct.2017.02.023).
± gives the expanded uncertainty stated by the source.

Columns and labels:
[1] = refractive index (Na D-line) (dimensionless); xn = mol fraction of the nth substance listed; conditions: 81.5 kPa, Liquid, Standard Abbe refractometry
[2] = xn = mol fraction of the nth substance listed; conditions: 81.5 kPa, Liquid, Vibrating tube method

CNC1CCCCC1 [N-methylcyclohexylamine] + CC(C)O
Conditions	mass density, 298.15 K [kg/m3]	mass density, 308.15 K [kg/m3]	mass density, 318.15 K [kg/m3]	mass density, 328.15 K [kg/m3]	refractive index, 298.15 K	refractive index, 308.15 K	refractive index, 318.15 K	refractive index, 328.15 K
[1], x2 = 0	–	–	–	–	1.45306 ± 0.0016	1.44812 ± 0.0016	1.4431 ± 0.0016	1.43809 ± 0.0016
[1], x2 = 0.159	–	–	–	–	1.4471 ± 0.0016	1.44293 ± 0.0016	1.43862 ± 0.0016	1.43418 ± 0.0016
[1], x2 = 0.2745	–	–	–	–	1.44224 ± 0.0016	1.43814 ± 0.0016	1.43386 ± 0.0016	1.42939 ± 0.0016
[1], x2 = 0.3856	–	–	–	–	1.43655 ± 0.0016	1.43263 ± 0.0016	1.42854 ± 0.0016	1.4242 ± 0.0016
[1], x2 = 0.4867	–	–	–	–	1.43021 ± 0.0016	1.42642 ± 0.0016	1.42248 ± 0.0016	1.41824 ± 0.0016
[1], x2 = 0.5738	–	–	–	–	1.42372 ± 0.0016	1.41996 ± 0.0016	1.41606 ± 0.0016	1.41185 ± 0.0016
[1], x2 = 0.6539	–	–	–	–	1.41688 ± 0.0016	1.41311 ± 0.0016	1.4092 ± 0.0016	1.40495 ± 0.0016
[1], x2 = 0.7253	–	–	–	–	1.41003 ± 0.0016	1.40629 ± 0.0016	1.40239 ± 0.0016	1.39812 ± 0.0016
[1], x2 = 0.7904	–	–	–	–	1.40314 ± 0.0016	1.39948 ± 0.0016	1.39565 ± 0.0016	1.39141 ± 0.0016
[1], x2 = 0.85	–	–	–	–	1.39619 ± 0.0016	1.39265 ± 0.0016	1.38892 ± 0.0016	1.38471 ± 0.0016
[1], x2 = 0.904	–	–	–	–	1.38928 ± 0.0016	1.38579 ± 0.0016	1.38209 ± 0.0016	1.37787 ± 0.0016
[1], x2 = 0.9541	–	–	–	–	1.38224 ± 0.0016	1.37859 ± 0.0016	1.37474 ± 0.0016	1.37035 ± 0.0016
[2], x2 = 0	865.2 ± 1.6	856.57 ± 1.6	847.67 ± 1.6	838.68 ± 1.6	–	–	–	–
[2], x2 = 0.159	860.12 ± 1.6	851.49 ± 1.6	842.65 ± 1.6	833.57 ± 1.6	–	–	–	–
[2], x2 = 0.2745	855.75 ± 1.6	847.1 ± 1.6	838.18 ± 1.6	828.82 ± 1.6	–	–	–	–
[2], x2 = 0.3856	850.26 ± 1.6	841.55 ± 1.6	832.63 ± 1.6	823.19 ± 1.6	–	–	–	–
[2], x2 = 0.4867	843.79 ± 1.6	835.1 ± 1.6	826.14 ± 1.6	816.62 ± 1.6	–	–	–	–
[2], x2 = 0.5738	836.95 ± 1.6	828.24 ± 1.6	819.27 ± 1.6	809.59 ± 1.6	–	–	–	–
[2], x2 = 0.6539	829.55 ± 1.6	820.8 ± 1.6	811.84 ± 1.6	802 ± 1.6	–	–	–	–
[2], x2 = 0.7253	822.01 ± 1.6	813.27 ± 1.6	804.23 ± 1.6	794.36 ± 1.6	–	–	–	–
[2], x2 = 0.7904	814.28 ± 1.6	805.54 ± 1.6	796.65 ± 1.6	786.58 ± 1.6	–	–	–	–
[2], x2 = 0.85	806.34 ± 1.6	797.64 ± 1.6	788.79 ± 1.6	778.81 ± 1.6	–	–	–	–
[2], x2 = 0.904	798.29 ± 1.6	789.69 ± 1.6	780.82 ± 1.6	770.72 ± 1.6	–	–	–	–
[2], x2 = 0.9541	789.83 ± 1.6	781.27 ± 1.6	772.4 ± 1.6	762.26 ± 1.6	–	–	–	–
